Several values for one entry are separate records, joined by “and”; a condition that tells them apart may be missing. Equal values may be shown once. Starred links: 1 amine or outer side, 2 acyl side, 3 side chain; linkers in the order of their positions; H or OH if unused. Positions of bridges follow the written chain, without caps; N, C: chain ends. Non-standard residues stand in square brackets, D forms with d. Residues, ends and D or L forms follow the SMILES beside them. Chains are numbered I, II in the order given. *: point of attachment. Actinocin(9to1) = Cc1c2oc3c(C)ccc(C(=O)[*:1])c3nc-2c(C(=O)[*:2])c(N)c1=O; NMeV = CN[C@H](C(=O)O)C(C)C; Cbz = O=C(OCc1ccccc1)*; Sar = CNCC(=O)O; CH2F = FC*
What was measured:
[1] = tested on: primary hippocampal neurons; experiment: excitotoxic cell death of primary hippocampal neurons, trypan blue exclusion; format: cell-based, rat
Experimental: Primary hippocampal neurons were prepared from 18-day-old embryonic Sprague-Dawley rats as described previously by Haughey, N. J. et al. (2001). Briefly, hippocampal tissue was dissociated by gentle tituration in a calcium-free Hank's balanced salt solution and was centrifuged at 1000×g. Cells were resuspended in Dulbecco's modified Eagle's medium (DMEM)/F12 nutrient mixture containing 10% heat-inactivated fetal bovine serum and 1% antibiotic solution (104 IU of penicillin G/ml, 10 mg streptomycin/ml and 25 μg amphotericin B/ml) in 0.9% NaCl (Sigma, St Louis, Mo., USA). Hippocampal neurons were plated at a density of 2×10^5 cells/ml on 12-mm diameter poly d-lysine-coated glass coverslips. Three hours after plating, the media was replaced with serum-free Neurobasal media containing 1% B-27 supplement (Gibco, Rockville, Md., USA).
To determine the extent to which NMDA-type glutamate receptors were involved in BNIP3 expression and excitotoxic cell death, the inventors used the agonist NMDA (100 μM) in the absence or presence of the NMDA receptor antagonist MK-801 (10 μM). To determine the extent to which caspase activation contributes to BNIP3-mediated cell death, hippocampal cells were incubated in the absence or presence of the broad spectrum cell permeable caspase inhibitors z-VAD-FMK (50 μM) and BOC-D-FMK (50 μM); these inhibitors were applied 30 minutes prior to application of glutamate or NMDA. […]
(§1) In vitro cell death was estimated using trypan blue exclusion. Cells were incubated in 0.4% trypan blue solution for 30 minutes and then counted on a bright-field microscope. Nonviable cells were distinguished by their dark blue staining. To examine nuclear morphology, nuclear DNA was stained with Hoescht 33342. DNA fragmentation was detected by TUNEL using an in situ cell death detection kit with fluorescein. Statistical analyses were by ANOVA with Tukey's post-test.

[2] = tested on: MEFs; experiment: b-galactosidase cell death assay in wild-type, Apaf-1, caspase 9 or caspase 3 deficient MEFs; format: cell-based, mouse
Experimental: (§2) Various doses of the peptide caspase inhibitor Ac-zVAD-fmk (Enzyme System Products, Dublin, Calif.) were applied to 1×10^5 293T cells cotransfected, using LipofectAmine reagent (Gibco-BRL), with 0.01 mg of the reporter plasmid pcDNA3bgal plus the indicated expression plasmids to a final amount of 0.75 mg of DNA (see FIG. 2), as adjusted with empty vector. Cells were fixed, stained, and evaluated 27 hours posttransfection as described previously (Miura, M. et al., 1993). Similar strategies were used to evaluate the expression of pcDNA1-p35 as a caspase inhibitor (1.95 mg of DNA total) and to determine the killing efficiency of BNIP3 expressed in MEF cells (1.2 mg of DNA with 0.3 mg of b-galactosidase).
Results are expressed as the mean […] SE from three independent experiments. […] N, N-Dimethyl formamide (DMF) was used to dilute the adriamycin.

[3] = tested on: 293T cells; experiment: DNA fragmentation (TUNEL) in transfected 293T cells; format: cell-based; set-up: dose or concentration left out as unconfirmed
Experimental: DNA fragmentation was detected using the in situ cell death detection kit with fluorescein (Boehringer Mannheim) as per the manufacturer's recommendations in the presence or absence of […] Ac-zVAD-fmk or Ac-FA-fmk. Images were captured as described earlier. No fewer than 200 nuclei were scored manually for each sample. Annexin V staining was performed exactly as described by the manufacturer (Boehringer Mannheim), and samples were analyzed via flow cytometry.

[4] = tested on: caspase 3-like proteases; experiment: caspase activation, colorigenic cleavage of Ac-DEVD-pNA by lysates of transfected 293T cells; format: biochemical
Experimental: Lysates were collected from 293T cells, transiently transfected via the CaP04 method (Ray, R., et al., 1999), at the indicated times. Aliquots of these lysates were run under Laemmli sodium dodecyl sulfate-polyacrylamide gel electrophoresis (SDS-PAGE) conditions and immunoblotted with mouse monoclonal anti-PARP. Results were visualized with an enhanced chemiluminescence system (Amersham Pharmacia Biotech, Amersham, U. K.). Transfected 293T cells were also assayed for caspase cleavage via colorigenic cleavage of the peptide Ac-DEVD-pNA (Biomol, Plymouth Meeting, Pa.), according to the conditions outlined by Quignon et al. (Scaffidi, C., et al., 1998), using 100 mM peptide. Where appropriate, samples were preincubated with 500 nM Ac-DEVD-fmk for 30 minutes at room temperature. Data were acquired on a Multiskan MCC/340 (Titertek) plate reader at 405 nm.

[5] = tested on: MCF-7 cells; experiment: cytochrome c release by indirect immunofluorescence, MCF-7; format: cell-based
Experimental: (§3) Mitochondria were isolated from CaP04-transfected 293T cells using 70 strokes (tight pestle) in a 1-ml Dounce homogenizer (Wheaton) in […] of CFS buffer as previously described (Thornberry, N. A., et al., 1998). Mitochondria were resuspended in H buffer (Thornberry, N. A., et al., 1998). Aliquots of […] of protein were analyzed on Laemmli SDS-15% PAGE gels and immunoblotted with anticytochrome c monoclonal antibody. Equal loading was ensured by probing the same blot with monoclonal antiactin. Results were visualized with enhanced chemiluminescence. Cytochrome c release was also determined via indirect immunofluorescence of transfected MCF-7 and 293T cells. Briefly, cells grown on coverslips were costained with Cy3-conjugated mouse anti-cytochrome c monoclonal antibody and an appropriate tag (HA for BNIP3 and FLAG for tBID), which was visualized with FITC-conjugated goat anti-rabbit IgG. Cells were also stained with Hoechst dye to determine apoptotic nuclear morphology. No fewer than 200 cells were scored for each sample. Fluorescence was visualized and captured using a Zeiss axiophot microscope equipped with a cooled charge-coupled device camera.

[6] = tested on: PT pore; experiment: mitochondrial Dcm (DiOC6), ROS production (HE) and PI staining by flow cytometry in BNIP3-transfected 293T cells; format: cell-based; conditions: 293T cells, 8 hours after transfection
Experimental: Changes in mitochondrial function were determined by incubating 10 6 293T cells, transiently transfected via the CaP04 method, with either 1 mM JC-1, 40 nM DiOC6, or 2 mM dihydroethidium (HE) (all from Molecular Probes, Inc.) for 30 minutes at 37° C. in Hanks' balanced salt solution (Gibco-BRL). Cells were scored using a FACScalibur flow cytometer (Becton-Dickinson, San Jose, Calif.), and data were analyzed on Celiquest software, version 3.1 (Becton-Dickinson). Controls were performed in the presence or absence of […] mClCCP (Sigma) or an excess of 30% H2 02. For inhibition experiments, cyclosporin A (Sigma) or bongkrekic acid (a gift from J. A. Duine, Delft University, Delft, The Netherlands) was added 2 hours prior to transfection. All cells were harvested 8 hours after transfection and stained with 40 nM DiOC6, 2 mM HE, or 1 mg of propidium iodide (PI) (Sigma) per ml. In all cases, samples were gated to exclude cellular debris.

[7] = tested on: primary hippocampal neurons; experiment: primary hippocampal neurons transfected with BNIP3 plasmids, DNA condensation and survival; format: cell-based, rat
Experimental: Transfection of cells was performed on day four in culture with LipofectAMINE 2000 […] according to manufacturer's protocol. Cells were transfected with a pcDNA3-BNIP3 plasmid encoding the full length of BNIP3 and a pcDNA3-BNIP3-163 plasmid that encodes a truncated form (the first 163 amino acids) of BNIP3 that lacks the functional transmembrane domain. Cells were used after 9 days in culture for excitotoxicity experiments. Neuronal cell death was assessed using trypan blue exclusion, morphological changes, and Hoescht 33342 staining. Morphological characteristics were examined on a Nikon Eclipse TE200 microscope and fluorescence was examined on a Zeiss Axioskop 2.
as §1

[8] = tested on: ventricular myocytes; experiment: cell viability of ventricular myocytes, calcein acetoxymethyl ester / ethidium homodimer-1; format: cell-based; conditions: for BNIP3-induced cell death of ventricular myocytes: z-VAD-fmk 25 to 100 μmol/L, dose dependent
Experimental: Ventricular myocytes were isolated from 1- to 2-day-old Sprague-Dawley rats (University of Manitoba, Winnipeg, Canada) and submitted to primary culture as reported (Kirshenbaum and Schneider, 1995). Myocytes were subjected to hypoxia for 24 hours in an air-tight chamber continually gassed with 95% N2-5% CO2, as previously reported (Moissac et al., 2000; Long et al., 1997; Tanaka et al., 1994). Adult rat hearts (n=3) were excised from adult rats (250 to 300 g) and subjected to global hypoxia for 1 hour on a modified Langendorff perfusion system with buffer continually gassed with 95% N2-5% CO2, as previously reported (Kirshenbaum, 1993). Heart failure was induced in rats by surgical ligation of the left anterior descending coronary artery, as previously reported (Dixon et al., 1992). Non-failing sham control hearts and those with heart failure were excised from animals 8 weeks after myocardial infarction. Hearts (n=3) were dissected to remove the infarcted scar tissue, and the left ventricular free wall was homogenized and analyzed by Western blot for BNIP3 expression. Animals were handled according to guidelines established by the University of Manitoba and Canadian Council on Animal Care.
The cDNAs for BNIP3 full-length (BNIP3) and carboxyl terminal transmembrane domain deletion mutant (BNIP3ΔTM) have been described previously (Vande et al., 2000). Recombinant adenoviruses encoding the full-length BNIP3 or transmembrane deletion mutant are designated AdBNIP3 or AdBNIP3ΔTM, respectively, and generated as reported previously (Kirshenbaum et al., 1993).
Cell viability was determined using the vital dyes 2 μmol/L calcein acetoxymethyl ester (green) to determine the number of living cells and 2 μmol/L ethidium homodimer-1 (red) (Molecular Probes) to identify the number of dead cells (Kirshenbaum and Schneider, 1995). The number of green cells versus red cells was used to determine changes in cell viability (Moissac et al., 2000). Cells were analyzed from at least n=3 independent myocyte isolations counting ≧200 cells for each condition tested. Data are expressed as mean±SE percent reduction from control.

[9] = tested on: 293T cells; experiment: cytochrome c release by indirect immunofluorescence, 293T; format: cell-based
Experimental: as §3

[10] = tested on: 293T cells; experiment: b-galactosidase cell death assay in transiently transfected 293T cells; format: cell-based
Experimental: as §2

[11] = inhibitor, 24 hours posttransfection

## Cc1c2oc3c(C)ccc(C(=O)N[C@@H]4C(=O)N[C@H](C(C)C)C(=O)N5CCC[C@H]5C(=O)N(C)CC(=O)N(C)[C@@H](C(C)C)C(=O)O[C@@H]4C)c3nc-2c(C(=O)N[C@@H]2C(=O)N[C@H](C(C)C)C(=O)N3CCC[C@H]3C(=O)N(C)CC(=O)N(C)[C@@H](C(C)C)C(=O)O[C@@H]2C)c(N)c1=O [actinomycin D] (I: T[dV]P[Sar][NMeV] / II: T[dV]P[Sar][NMeV]; ester I:1-I:C, II:1-II:C; linker I:N-II:N via Actinocin(9to1))
[1]; actinomycin D 1 mg/ml added, p<0.01, to untreated control levels
  number of trypan blue positive cells caused by glutamate toxicity: significantly decreased
[1]; actinomycin D alone
  cell death rates, drug alone: did not affect

## COc1cccc2c1C(=O)c1c(O)c3c(c(O)c1C2=O)C[C@@](O)(C(=O)CO)C[C@@H]3O[C@H]1C[C@H](N)[C@H](O)[C@H](C)O1 [adriamycin]
[2]; Apaf-1, caspase 9 or caspase 3 deficient MEFs, 3 mg of adriamycin per ml for 24 hours
  adriamycin-induced cell death in mutant MEFs: profound resistance

## CC(=O)NC(Cc1ccccc1)C(=O)NC(C)C(=O)CF (stereo not shown) [Ac-FA-fmk]
[3]; Ac-FA-fmk
  DNA fragmentation (TUNEL) in parallel populations: No effect

## CC(=O)N[C@@H](CC(=O)O)C(=O)N[C@@H](CCC(=O)O)C(=O)N[C@H](C(=O)N[C@@H](CC(=O)O)C(=O)CF)C(C)C [Ac-DEVD-fmk]
[4]; 500 nM Ac-DEVD-fmk
  proteolytic activity of lysates of BNIP3 or BNIP3DTM transfected cells with inhibitor: not inhibited
[4]; lysates preincubated with 500 nM Ac-DEVD-fmk
  Ac-DEVD-pNA substrate cleavage in tBID-transfected cells with inhibitor: blocked

## BNIP3: full-length BNIP3, expressed from plasmid or adenovirus; mutation None
[5]
  cytochrome c release (in words): no significant cytochrome c release
[2]; wild-type and all mutant MEF lines
  cell death induced by transient transfection: 50%
[6]
  DiOC6-low and HE-high cells: 55%
[7]; glutamate 100 μM at day 9 in culture, 5 days after transfection
  neurons surviving glutamate toxicity: 32%
[7]; transiently transfected hippocampal neurons
  BNIP3-positive neurons showing DNA condensation / DNA damage: 81% and 85%
[4]; 293T lysates harvested 1 to 36 hours posttransfection, versus untransfected controls
  increase in Ac-DEVD-pNA substrate cleavage after transfection: only marginal increases
[8]; adenovirus encoding full-length BNIP3 versus control virus, P<0.05
  increase in myocyte death: 8.3 fold
[9]
  cytochrome c release (in words): only very low levels

## CN[C@H](CC(=O)O)C(=O)O [NMDA]
[1]; 6 hours after application, p<0.01
  neuronal cell death (trypan blue exclusion): significantly increased

## COC(=O)C[C@H](NC(=O)[C@H](C)NC(=O)[C@@H](NC(=O)OCc1ccccc1)C(C)C)C(=O)CF [Ac-zVAD-fmk] (Cbz-Val-Ala-Asp(OMe)-CH2F)
[1]; z-VAD-FMK 50 μM alone, trypan blue 6 hours after glutamate or NMDA
  cell death caused by glutamate or NMDA: did not prevent
[10]; 293T cells transfected with BNIP3, evaluated 27 hours posttransfection, p35 plasmid up to 1.5 mg
  BNIP3-induced cell death in presence of caspase inhibitor: unaffected
[10]; 293T cells, 27 hours posttransfection, same concentration of inhibitor
  suppression of cell death of tBID or caspase 9/Apaf-1 transfectants: greater than 50%
[3]; [11]
  DNA fragmentation (TUNEL) in BNIP3 transfectants: partially inhibited
  DNA fragmentation (TUNEL) in tBID-expressing cells: nearly completely inhibited
[8]; listed as z-VAD-fmk
  BNIP3-induced cell death of ventricular myocytes: prevented
[8]; listed as z-VADfmk
  BNIP3-induced cell death of ventricular myocytes: suppressed

From US7452869B2, “NIP3 family of proteins” (University of Manitoba, priority 2000, dated 2008)
